Assay results taken from patent publication US7420060B2, “Benzopyran derivatives substituted with a thioxobenzoxazole derivative, pharmaceutically acceptable salts thereof, their preparations and pharmaceutical compositions containing them” (Schaeffler KG, priority 2003, dated 2008).

Columns and labels:
[1] = system: ischemic heart isolated from white rat; test: Cardioprotective effect on isolated ischemic rat heart (Langendorff, 30 min global ischemia / 30 min reperfusion); settings: 10 μM; for LDH (concentration of lactate dehydogenase): after 30 min reperfusion; for EDP (left ventricular end diastolic pressure): after reperfusion, baseline set at 5 mmHg; for LVDP × HR (left ventricular developed pressure × heart rate): reperfusion DP as % of pre-treatment DP, 30 min after reperfusion
Protocol: 100 mg/kg of sodium pentobarbital was injected in abdominal cavity of white male rats (300˜450 g, obtained form the experimental animal team of the Korea Research Institute of Chemical Technology) to anesthetize them. Then, an intravenous injection of 1000 U/kg of heparin was performed before taking out heart. Particularly, cannula(PE 240) was inserted in the trachea, and artificial respiration was tried upon the rat by using a rodent ventilator. Under that condition, aortic cannula was inserted in the aorta and heart was taken out under retrograde perfusion. The extracted heart was hung on Langendorff apparatus quickly and unnecessary tissues on heart were removed. Perfusion was induced under static pressure (85 mmHg) with 37° C. modified Krebs-Henseleit bicarbonate buffer (composition <mM/L>: 116 NaCl, 4.7 KCl, 1.1 MgSO4, 1.17 KH2PO4, 24.9 NaHCO3, 2.52 CaCl2, 8.32 Glucose, 2.0 Pyruvate) saturated with 95% O2/5% CO2. A metal cannula, to which a latex balloon filled with an ethanol-distilled water mixture (1:1 vol/vol) was linked, was inserted in left ventricle through pulmonary vein. Then, left ventricular pressure transmitted through the balloon was transduced by using pressure transducer, and amplified by using Plugsys bridge amplifier isovolumetrically. Then, the pressure was recorded in a recorder (Linearcorder mark 8 WR 3500). Thereafter, heart was stabilized for 15 minutes. Then, left ventricular end diastolic pressure (LVEDP) was given by 5 mmHg and such volume of the balloon was kept all through the experiments.
Baseline cardiac contractile function, heart rate (HR), and coronary flow (CF) were measured. Cardiac contractile function was calculated by […], yielding LVDP (left ventricular developed pressure). Double product RPP (rate-pressure product)(DP), another important parameter for indirectly assessing cardiac performance in Langendorff heart, whose cardiac output could not be measured ordinarily, was calculated by multiplying HR by LVDP. Throughout the experiment, total coronary blood flow was measured by the use of coronary flow probe (diameter: 1.0 mm) installed in aortic cannula with electromagnetic flowmeter. Temperature of heart was steadily maintained by immersing the heart at 37° C. in physiological saline solution to which 95% O2/5% CO2 was constantly supplied. After stabilization for 15 min, the hearts were pre-treated for 10 min with vehicle (0.04% DMSO) only or a compound of the present invention or the control material in the vehicle. Thereafter, cardiac contractile function, HR and CF were repeatedly measured. Global ischemia was induced by completely shutting off the perfusate for 30 min. Severity of ischemia was determined as the time to contracture (TTC, min) during global ischemia in which the first 5 mmHg increase in EDP was observed. Then, the hearts were reperfused and, 30 min later, contractile functions (LVDP, HR and CF) were repeatedly measured. After reperfusion was accomplished for 30 min, LDH (lactate dehydrogenase) was measured with a kit as a sensitive index for loss of cell viability.

[2] = system: ischemic myocardial injury models prepared from white rats; test: Antiischemic activity in the anesthetized rat ischemic myocardial injury model (coronary occlusion 45 min / reperfusion 90 min); assay type: in vivo; settings: 0.3 mg/kg, intravenous (femoral vein), 30 min before occlusion
Protocol: 75 mg/kg of sodium pentobarbital was injected in abdominal cavity of white male rats (350-450 g, Laboratory Animal Division, Korea Research Institute of Chemical Technology) to anesthetize them. After performing tracheotomy, artificial respiration was induced by 10 ml/kg of stroke volume and 60/min. of heart rate. Cannula was inserted in each of vena fermoralis and aorta fermoralis, through which medicines were administered and blood pressure was measured. In the meantime, since body temperature in a ischemic myocardial injury model was very important factor, directly influencing a result, the temperature of a rat was always kept at 37° C. by using a probe for measuring body temperature inserted in rectum and homeothermic blanket control unit. Mean arterial blood pressure and heart rate (HR) of the rat were measured all through the experiments. Statham P23XL pressure transducer (Grass Ins., MA., USA) was used for measuring blood pressure and ECG/RATE Coupler (Hugo Sachs Electronic, Germany) was used for measuring HR. In addition, all the changes were recorded successively by graphtec linearcorder chart recorder (Graphtec Linearcorder WR 3310, Hugo Sachs Electronic).
According to the method of Selye H, left coronary aorta was occluded as follows. Left thoracotomy was induced. That is, the chest of a rat was a little opened. The right chest of the anesthetized rat was pressurized by the middle finger of left hand, so that the heart was pushed out. The heart was fixed gently by the thumb and the index finger of the left hand. A stitch was carefully put on a part including left anterior descending coronary artery by a suture needle with operating thread (5-0 silk ligature), and the heart was quickly positioned again in thoracic cavity. Then, both ends of operating thread were exposed outside. Both ends of operating thread were passed through PE tube (PE100, 2.5 cm) and left for 20 minutes for stabilization. A vehicle or a medicine was administered through the cannula inserted in femoral vein, which was left for 30 minutes in order for the medicine to work thoroughly. BMS-180448 was used for a control group and the dosage of each test medicine and a control medicine was 0.3 mg/kg each. […]
The coronary artery was reoccluded according to the above method and 2 ml of 1% Evans blue solution was administered by intravenous injection. […] The surface of each slice was inputted in a computer by using Hi-scope, a compact micro vision system, and Image pro plus program, from which both normal blood flow tissue area stained by blue and non-stained area on each slice were measured. The ratio of non-stained area to the gross area of each slice was calculated, by which the weight of each slice was multiplied to calculate AAR (area at risk) of each slice. […]

[3] = during 30 min global ischemia, first 5 mmHg increase in EDP

CC1(C)Oc2ccc(C#N)cc2[C@@H](NC(=NC#N)Nc2ccc(Cl)cc2)[C@@H]1O [BMS-180448, reference compound]
LDH (concentration of lactate dehydogenase) [1]: 17.2 unit/g
EDP (left ventricular end diastolic pressure) [1]: 16.5 mmHg
TTC (time to induce contraction / time to contracture) [1, 3]: 27.8 min
LVDP × HR (left ventricular developed pressure × heart rate) [1]: 67.6%
IZ/AAR(%) myocardial infarction size to area at risk [2]: 39.1%

COC(OC)[C@]1(C)Oc2ccc([N+](=O)[O-])cc2[C@H](n2c(=S)oc3ccccc32)[C@H]1O [Example 1, (2R,3R,4S)-6-nitro-3,4-dihydro-3-hydroxy-2-dimethoxymethyl-2-methyl-4-(2-thioxobenzoxazol-3-yl)-2H-1-benzopyran]
LDH (concentration of lactate dehydogenase) [1]: 4.6 unit/g
EDP (left ventricular end diastolic pressure) [1]: 19.8 mmHg
TTC (time to induce contraction / time to contracture) [1, 3]: 25.3 min
LVDP × HR (left ventricular developed pressure × heart rate) [1]: 53.8%
IZ/AAR(%) myocardial infarction size to area at risk [2]: 39.6%

COC(OC)[C@]1(C)Oc2ccc([N+](=O)[O-])cc2[C@@H](n2c(=S)oc3ccccc32)[C@@H]1O [Example 2, (2R,3S,4R)-6-nitro-3,4-dihydro-3-hydroxy-2-dimethoxymethyl-2-methyl-4-(2-thioxobenzoxazol-3-yl)-2H-1-benzopyran]
LDH (concentration of lactate dehydogenase) [1]: 17.9 unit/g
EDP (left ventricular end diastolic pressure) [1]: 29.3 mmHg
TTC (time to induce contraction / time to contracture) [1, 3]: 24.4 min
LVDP × HR (left ventricular developed pressure × heart rate) [1]: 57.6%

COC(OC)[C@@]1(C)Oc2ccc([N+](=O)[O-])cc2[C@H](n2c(=S)oc3ccccc32)[C@H]1O [Example 3, (2S,3R,4S)-6-nitro-3,4-dihydro-3-hydroxy-2-dimethoxymethyl-2-methyl-4-(2-thioxobenzoxazol-3-yl)-2H-1-benzopyran]
LDH (concentration of lactate dehydogenase) [1]: 12.6 unit/g
EDP (left ventricular end diastolic pressure) [1]: 15.3 mmHg
TTC (time to induce contraction / time to contracture) [1, 3]: 26.6 min
LVDP × HR (left ventricular developed pressure × heart rate) [1]: 66.8%

COC(OC)[C@]1(C)Oc2ccc([N+](=O)[O-])cc2[C@H](n2c(=S)oc3cc(C)ccc32)[C@H]1O [Example 5, (2R,3R,4S)-6-nitro-3,4-dihydro-3-hydroxy-2-dimethoxymethyl-2-methyl-4-(6-methyl-2-thioxobenzoxazol-3-yl)-2H-1-benzopyran]
LDH (concentration of lactate dehydogenase) [1]: 20.2 unit/g
EDP (left ventricular end diastolic pressure) [1]: 21.0 mmHg
TTC (time to induce contraction / time to contracture) [1, 3]: 29.0 min
LVDP × HR (left ventricular developed pressure × heart rate) [1]: 47.4%

COC(OC)[C@]1(C)Oc2ccc([N+](=O)[O-])cc2[C@H](n2c(=S)oc3cccc(C)c32)[C@H]1O [Example 6, (2R,3R,4S)-6-nitro-3,4-dihydro-3-hydroxy-2-dimethoxymethyl-2-methyl-4-(4-methyl-2-thioxobenzoxazol-3-yl)-2H-1-benzopyran]
LDH (concentration of lactate dehydogenase) [1]: 9.6 unit/g
EDP (left ventricular end diastolic pressure) [1]: 6.3 mmHg
TTC (time to induce contraction / time to contracture) [1, 3]: 26.7 min
LVDP × HR (left ventricular developed pressure × heart rate) [1]: 74.3%
IZ/AAR(%) myocardial infarction size to area at risk [2]: 42.5%

COC(OC)[C@]1(C)Oc2ccc([N+](=O)[O-])cc2[C@H](n2c(=S)oc3ccc(Cl)cc32)[C@H]1O [Example 7, (2R,3R,4S)-6-nitro-3,4-dihydro-3-hydroxy-2-dimethoxymethyl-2-methyl-4-(5-chloro-2-thioxobenzoxazol-3-yl)-2H-1-benzopyran]
LDH (concentration of lactate dehydogenase) [1]: 21.1 unit/g
EDP (left ventricular end diastolic pressure) [1]: 23.3 mmHg
TTC (time to induce contraction / time to contracture) [1, 3]: 25.6 min
LVDP × HR (left ventricular developed pressure × heart rate) [1]: 59.4%

COC(OC)[C@]1(C)Oc2ccc([N+](=O)[O-])cc2[C@H](n2c(=S)oc3cc([N+](=O)[O-])ccc32)[C@H]1O [Example 9, (2R,3R,4S)-6-nitro-3,4-dihydro-3-hydroxy-2-dimethoxymethyl-2-methyl-4-(6-nitro-2-thioxobenzoxazol-3-yl)-2H-1-benzopyran]
TTC (time to induce contraction / time to contracture) [1]: 23.5 min
LDH (concentration of lactate dehydogenase) [1]: 30.1 unit/g
EDP (left ventricular end diastolic pressure) [1]: 27.0 mmHg
LVDP × HR (left ventricular developed pressure × heart rate) [1]: 61.1%

COC(OC)[C@]1(C)Oc2ccc([N+](=O)[O-])cc2[C@H](n2c(=S)oc3ccc(C(F)(F)F)cc32)[C@H]1O [Example 16, (2R,3R,4S)-6-nitro-3,4-dihydro-3-hydroxy-2-dimethoxymethyl-2-methyl-4-(5-trifluoromethyl-2-thioxobenzoxazol-3-yl)-2H-1-benzopyran]
EDP (left ventricular end diastolic pressure) [1]: 13.3 mmHg
TTC (time to induce contraction / time to contracture) [1, 3]: 26.5 min
LVDP × HR (left ventricular developed pressure × heart rate) [1]: 79.3%

COC(OC)[C@]1(C)Oc2ccc(N)cc2[C@@H](n2c(=S)oc3ccccc32)[C@@H]1O [Example 20, (2R,3S,4R)-6-amino-3,4-dihydro-3-hydroxy-2-dimethoxymethyl-2-methyl-4-(2-thioxobenzoxazol-3-yl)-2H-1-benzopyran]
LDH (concentration of lactate dehydogenase) [1]: 3.9 unit/g
EDP (left ventricular end diastolic pressure) [1]: 43.3 mmHg
TTC (time to induce contraction / time to contracture) [1, 3]: 21.3 min
LVDP × HR (left ventricular developed pressure × heart rate) [1]: 42.0%

COC(OC)[C@]1(C)Oc2ccc(NC(=O)C(F)(F)F)cc2[C@H](n2c(=S)oc3ccccc32)[C@H]1O [Example 36, (2R,3R,4S)-6-trifluoroacetylamino-3,4-dihydro-3-hydroxy-2-dimethoxymethyl-2-methyl-4-(2-thioxobenzoxazol-3-yl)-2H-1-benzopyran]
EDP (left ventricular end diastolic pressure) [1]: 27.3 mmHg
TTC (time to induce contraction / time to contracture) [1, 3]: 24.9 min
LVDP × HR (left ventricular developed pressure × heart rate) [1]: 48.4%
